Test results from patent EP4692073A1, “CYCLIC AMINE DERIVATIVE, AND COMPOSITION AND USE THEREOF” (Shanghai Jingxin Biomedical Co., Ltd., priority 2023, dated 2024).

Legend:
Lp(a) = experiment: In vivo Lp(a) inhibition in cynomolgus monkeys; details: 3 mg/kg oral gavage once daily for 5 days, serum Lp(a) 8 hours after administration on Day 5
Description: • 1. Experimental purpose: The purpose of this test is to test the inhibitory effect of the compounds of the present invention on Lp(a) in cynomolgus monkeys • 2. Experimental instruments and reagents: Fully automatic biochemical analyzer (Hitachi 7600 model), • 3. Experimental methods: The cynomolgus monkeys were housed with a standard light cycle (12 hours light/12 hours dark), at a room temperature of 18-26°C and a relative humidity of 40-70%, with drinking water provided continuously for 24 hours, and feed was provided to the animals twice daily, in the morning (about 10:30) and in the afternoon (about 15:00). Five days prior to the study, the cynomolgus monkeys were randomly assigned to groups (n=3/group) based on their body weight and baseline serum Lp(a) concentration for the study. The administration volume was calculated according to the body weight of the animals on the first day of administration, and the administration volume was 5 mL/kg, administered once daily by oral gavage for 5 consecutive days, and the dosage was 3 mg/kg, and the solvent was 1% HEC and 0.25% Tween 80.
The adaptation period (after fasting overnight), before administration on Day 1, and 8 hours after administration on Day 5. […] The serum Lp(a) level was detected using a fully automatic biochemical analyzer. […]

TA98 = experiment: Salmonella typhimurium reverse mutation test, TA98; format: cell-based; parameters: key: + indicates a positive mutagenic result; - indicates a negative mutagenic result
Description: (§1) The revived strains or a single colony from the master plate were inoculated into the broth, and cultured in a thermostat gas bath vibrator at 100 to 120 rpm and 37±1°C for 10 to 16 hours, marked and stored for later use. The bottom agar medium (containing an appropriate amount of agar, Vogel-Bonner buffer, 20% glucose solution and 20% magnesium sulfate solution) was poured into a six-well plate, approximately 20mL-25mL into each well, and allowed to cool and solidify naturally, marked each well and stored for later use.
(§2) Three wells were set up in each group for parallel experiments. The top agar medium was sterilized under high pressure and kept warm at about […]. In each test tube, 0.1mL of negative control (DMSO) or positive control or test sample, 0.1mL of bacterial solution suspension, 0.5mL of phosphate buffer (0.2M PBS) (-S9) or 0.5mL of S9 mixed solution (+S9) and 2.5mL top culture medium were added, after vortex mixing, and then quickly and evenly spread on the culture dish which was already spreaded with the bottom agar medium. After natural cooling and solidification, the culture dish was inverted and placed in a 37°C incubator for 48 to 72 hours. After culturing for 48 to 72 hours, the culture dish was taked out, and the number of revertant colonies in each well was counted, the growth background was observed under a microscope to determine whether there was antibacterial or bactericidal activity, and the experimental results were recorded.

TA1537 = experiment: Salmonella typhimurium reverse mutation test, TA1537; format: cell-based; parameters: key: + indicates a positive mutagenic result; - indicates a negative mutagenic result
Description: as §1, §2

TA100 = experiment: Salmonella typhimurium reverse mutation test, TA100; format: cell-based; parameters: key: + indicates a positive mutagenic result; - indicates a negative mutagenic result
Description: as §1, §2

TA102 = experiment: Salmonella typhimurium reverse mutation test, TA102; format: cell-based; parameters: key: + indicates a positive mutagenic result; - indicates a negative mutagenic result
Description: as §1, §2

TA1535 = experiment: Salmonella typhimurium reverse mutation test, TA1535; format: cell-based; parameters: key: + indicates a positive mutagenic result; - indicates a negative mutagenic result
Description: as §1, §2

[1] = TA98, no S9 mixture, 62µg/ dish
[2] = TA98, no S9 mixture, 185µg/ dish
[3] = TA98, no S9 mixture, 556µg/ dish
[4] = TA98, no S9 mixture, 1667µg/ dish
[5] = TA98, no S9 mixture, 5000µg/ dish
[6] = TA98, with S9 mixture, 62µg/ dish
[7] = TA98, with S9 mixture, 185µg/ dish
[8] = TA98, with S9 mixture, 556µg/ dish
[9] = TA98, with S9 mixture, 1667µg/ dish
[10] = TA98, with S9 mixture, 5000µg/ dish
[11] = TA1537, no S9 mixture, 62µg/ dish
[12] = TA1537, no S9 mixture, 185µg/ dish
[13] = TA1537, no S9 mixture, 556µg/ dish
[14] = TA1537, no S9 mixture, 1667µg/ dish
[15] = TA1537, no S9 mixture, 5000µg/ dish
[16] = TA1537, with S9 mixture, 62µg/ dish
[17] = TA1537, with S9 mixture, 185µg/ dish
[18] = TA1537, with S9 mixture, 556µg/ dish
[19] = TA1537, with S9 mixture, 1667µg/ dish
[20] = TA1537, with S9 mixture, 5000µg/ dish
[21] = TA100, no S9 mixture, 62µg/ dish
[22] = TA100, no S9 mixture, 185µg/ dish
[23] = TA100, no S9 mixture, 556µg/ dish
[24] = TA100, no S9 mixture, 1667µg/ dish
[25] = TA100, no S9 mixture, 5000µg/ dish
[26] = TA100, with S9 mixture, 62µg/ dish
[27] = TA100, with S9 mixture, 185µg/ dish
[28] = TA100, with S9 mixture, 556µg/ dish
[29] = TA100, with S9 mixture, 1667µg/ dish
[30] = TA100, with S9 mixture, 5000µg/ dish
[31] = TA102, no S9 mixture, 62µg/ dish
[32] = TA102, no S9 mixture, 185µg/ dish
[33] = TA102, no S9 mixture, 556µg/ dish
[34] = TA102, no S9 mixture, 1667µg/ dish
[35] = TA102, no S9 mixture, 5000µg/ dish
[36] = TA102, with S9 mixture, 62µg/ dish
[37] = TA102, with S9 mixture, 185µg/ dish
[38] = TA102, with S9 mixture, 556µg/ dish
[39] = TA102, with S9 mixture, 1667µg/ dish
[40] = TA102, with S9 mixture, 5000µg/ dish
[41] = TA1535, no S9 mixture, 62µg/ dish
[42] = TA1535, no S9 mixture, 185µg/ dish
[43] = TA1535, no S9 mixture, 556µg/ dish
[44] = TA1535, no S9 mixture, 1667µg/ dish
[45] = TA1535, no S9 mixture, 5000µg/ dish
[46] = TA1535, with S9 mixture, 62µg/ dish
[47] = TA1535, with S9 mixture, 185µg/ dish
[48] = TA1535, with S9 mixture, 556µg/ dish
[49] = TA1535, with S9 mixture, 1667µg/ dish
[50] = TA1535, with S9 mixture, 5000µg/ dish

For `O=C(O)[C@@H](Cc1cccc(CN(Cc2cccc(C[C@H](C(=O)O)[C@H]3CCNC3)c2)Cc2cccc(C[C@H](C(=O)O)[C@H]3CCNC3)c2)c1)[C@H]1CCNC1` [Comparative Example 1], the “Lp(a) inhibition rate” value (Lp(a)) was 32.87±17.30%, the mutagenicity (TA98; [1]) was “-” and the mutagenicity (TA98; [2]) was “+”. For the same compound, the mutagenicity (TA98; [3]) was “+”, the mutagenicity (TA98; [4]) was “+” and the mutagenicity (TA98; [5]) was “+”. The mutagenicity (TA98; [6]) was “-”, the mutagenicity (TA98; [7]) was “-” and the mutagenicity (TA98; [8]) was “+”. The mutagenicity (TA98; [9]) was “+”, the mutagenicity (TA98; [10]) was “+” and the mutagenicity (TA1537; [11]) was “-”. The mutagenicity (TA1537; [12]) was “-”, the mutagenicity (TA1537; [13]) was “-” and the mutagenicity (TA1537; [14]) was “-”. The mutagenicity (TA1537; [15]) was “-”, the mutagenicity (TA1537; [16]) was “-” and the mutagenicity (TA1537; [17]) was “-”. For the same compound, the mutagenicity (TA1537; [18]) was “-”, the mutagenicity (TA1537; [19]) was “-” and the mutagenicity (TA1537; [20]) was “-”. The mutagenicity (TA100; [21]) was “-”, the mutagenicity (TA100; [22]) was “-” and the mutagenicity (TA100; [23]) was “-”. For the same compound, the mutagenicity (TA100; [24]) was “-”, the mutagenicity (TA100; [25]) was “-” and the mutagenicity (TA100; [26]) was “-”. The mutagenicity (TA100; [27]) was “-”, the mutagenicity (TA100; [28]) was “-” and the mutagenicity (TA100; [29]) was “-”. For the same compound, the mutagenicity (TA100; [30]) was “-”, the mutagenicity (TA102; [31]) was “-” and the mutagenicity (TA102; [32]) was “-”. For the same compound, the mutagenicity (TA102; [33]) was “-”, the mutagenicity (TA102; [34]) was “-” and the mutagenicity (TA102; [35]) was “-”. For the same compound, the mutagenicity (TA102; [36]) was “-”, the mutagenicity (TA102; [37]) was “-” and the mutagenicity (TA102; [38]) was “-”. For the same compound, the mutagenicity (TA102; [39]) was “-”, the mutagenicity (TA102; [40]) was “-” and the mutagenicity (TA1535; [41]) was “-”. The mutagenicity (TA1535; [42]) was “-”, the mutagenicity (TA1535; [43]) was “-” and the mutagenicity (TA1535; [44]) was “-”. The mutagenicity (TA1535; [45]) was “-”, the mutagenicity (TA1535; [46]) was “-” and the mutagenicity (TA1535; [47]) was “-”. For the same compound, the mutagenicity (TA1535; [48]) was “-”, the mutagenicity (TA1535; [49]) was “-” and the mutagenicity (TA1535; [50]) was “-”.
With `O=C(O)[C@@H](Cc1cccc(CN(Cc2cccc(C[C@H](C(=O)O)[C@H]3CCNC3)c2)C(=O)c2cccc(C[C@H](C(=O)O)[C@H]3CCNC3)c2)c1)[C@H]1CCNC1` [Example 5] the “Lp(a) inhibition rate” value (Lp(a)) was 50.23±20.41%, the mutagenicity (TA98; [1]) was “-” and the mutagenicity (TA98; [2]) was “-”. For the same compound, the mutagenicity (TA98; [3]) was “-”, the mutagenicity (TA98; [4]) was “-” and the mutagenicity (TA98; [5]) was “-”. The mutagenicity (TA98; [6]) was “-”, the mutagenicity (TA98; [7]) was “-” and the mutagenicity (TA98; [8]) was “-”. For the same compound, the mutagenicity (TA98; [9]) was “-”, the mutagenicity (TA98; [10]) was “-” and the mutagenicity (TA1537; [11]) was “-”. For the same compound, the mutagenicity (TA1537; [12]) was “-”, the mutagenicity (TA1537; [13]) was “-” and the mutagenicity (TA1537; [14]) was “-”. For the same compound, the mutagenicity (TA1537; [15]) was “-”, the mutagenicity (TA1537; [16]) was “-” and the mutagenicity (TA1537; [17]) was “-”. For the same compound, the mutagenicity (TA1537; [18]) was “-”, the mutagenicity (TA1537; [19]) was “-” and the mutagenicity (TA1537; [20]) was “-”. For the same compound, the mutagenicity (TA100; [21]) was “-”, the mutagenicity (TA100; [22]) was “-” and the mutagenicity (TA100; [23]) was “-”. For the same compound, the mutagenicity (TA100; [24]) was “-”, the mutagenicity (TA100; [25]) was “-” and the mutagenicity (TA100; [26]) was “-”. For the same compound, the mutagenicity (TA100; [27]) was “-”, the mutagenicity (TA100; [28]) was “-” and the mutagenicity (TA100; [29]) was “-”. For the same compound, the mutagenicity (TA100; [30]) was “-”, the mutagenicity (TA102; [31]) was “-” and the mutagenicity (TA102; [32]) was “-”. For the same compound, the mutagenicity (TA102; [33]) was “-”, the mutagenicity (TA102; [34]) was “-” and the mutagenicity (TA102; [35]) was “-”. The mutagenicity (TA102; [36]) was “-”, the mutagenicity (TA102; [37]) was “-” and the mutagenicity (TA102; [38]) was “-”. For the same compound, the mutagenicity (TA102; [39]) was “-”, the mutagenicity (TA102; [40]) was “-” and the mutagenicity (TA1535; [41]) was “-”. For the same compound, the mutagenicity (TA1535; [42]) was “-”, the mutagenicity (TA1535; [43]) was “-” and the mutagenicity (TA1535; [44]) was “-”. For the same compound, the mutagenicity (TA1535; [45]) was “-”, the mutagenicity (TA1535; [46]) was “-” and the mutagenicity (TA1535; [47]) was “-”. For the same compound, the mutagenicity (TA1535; [48]) was “-”, the mutagenicity (TA1535; [49]) was “-” and the mutagenicity (TA1535; [50]) was “-”.
